Measurements published in ChEMBL document CHEMBL3286265, “Three new anti-proliferative Annonaceous acetogenins with mono-tetrahydrofuran ring from graviola fruit (Annona muricata)” (Bioorg Med Chem Lett, 2014).
Activity calls are given as the source filed them. The rule behind the calls is not given here.

System: PC-3
Experiment: Antiproliferative activity against human PC3 cells at 20 ug/ml after 24 hrs by MTT assay
Type: functional, cell-based

SMILES	inhibition
CCCCCCCC[C@@H](O)[C@@H](O)CC[C@H](O)[C@H]1CC[C@H](CCCCCCCCCCC[C@H](O)CC2=C[C@H](C)OC2=O)O1	Active
CCCCCCCCCCCC[C@H](O)[C@H]1CC[C@H]([C@H](O)CC(O)CCCCCCCC[C@H](O)CC2=C[C@H](C)OC2=O)O1 (stereo partly drawn)	Active
CCCCCCCC(O)CCCCCCC[C@@H](O)[C@H]1CC[C@H]([C@H](O)CCCCCCC[C@H](O)CC2=C[C@H](C)OC2=O)O1 (stereo partly drawn)	Active
